From paper PMC8041276 (ACS Chemical Neuroscience, 2021)

Tests used:
[1] = biological target: T1, CYP3A4 (Homo sapiens, UniProt P08684); test: CYP3A4 P450-Glo luminescent inhibition assay; type: in vitro ADME; settings: 0.01–25 μM
T1 construct: purchased Promega (Madison, WI, USA)
Description: The luminescent CYP3A4 P450-Glo and CYP2D6 P450-Glo assays and protocols were provided by Promega (Madison, WI, USA). The P450-Glo systems based on the conversion proluciferins, derivatives of beetle luciferin [(4S)-4,5-dihydro-2-(6′-hydroxy-2′-benzothiazolyl)-4-thiazolecarboxylic acid] into D-luciferin were catalyzed by respective CYP isoform. D-Luciferin is formed and detected in a second reaction with the luciferin detection reagent (LDR). The amount of light produced in the second reaction is proportional to CYP activity.
The stock solutions (10 mM) of the references ketoconazole (KE), quinidine (QD), and examined compounds were performed in DMSO. The 4× concentrated dilutions were prepared before the assays. […]
The CYPs, proluciferin, and examined compounds (25 μL/well) were preincubated first for 5 min, and next the NADPH regeneration system was added (25 μL) to start the reaction. […] The control reactions for measuring the 100% of CYPs activity and minus-CYP negative control reactions for measure background luminescence were also prepared. […] Finally, LDR was added (50 μL/well), and after 20 min of incubation in room temperature the luminescence signal was measured with a microplate reader (EnSpire, PerkinElmer) in luminescence mode. […] The IC50 values and were calculated using GraphPad Prism 5 software.

[2] = test system: cognitive flexibility; test: Attentional set-shifting task (ASST); type: in vivo, male Sprague-Dawley rats; settings: rats
Description: The experiments were conducted in accordance with the NIH Guide for the Care and Use of Laboratory Animals and were approved by the II Local Ethics Committee for Animal Experiments, Maj Institute of Pharmacology. Male […] Sprague-Dawley rats (Charles River, Germany) weighing ∼250 g at the arrival were housed in the standard laboratory cages, under standard colony A/C controlled conditions: room temperature 21 ± 2 °C, humidity (40–50%), 12 h light/dark cycle (lights on, 06:00) with ad libitum access to food (unless stated otherwise) and water. Rats were allowed to acclimatize for at least 7 days before the start of the experimental procedure. During this week animals were handled at least 3 times. Behavioral testing was carried out during the light phase of the light/dark cycle. At least 1 h before the start of the experiment, rats were transferred to the experimental room for acclimation.
Thirty-two male Sprague-Dawley rats were group housed with a mild food restriction (17 g of food pellets per day) for at least 1 week prior to training.
Testing was conducted in a Plexiglas apparatus (length × width × height: 38 cm × 38 cm × 17 cm) with the grid floor and wall dividing half of the length of the cage into two sections. During testing, one ceramic digging pot (internal diameter of 10.5 cm and a depth of 4 cm) was placed in each section. Each pot was defined by a pair of cues along with two stimulus dimensions. To mark each pot with a distinct odor, 5 μL of a flavoring essence (Dr Oetker, Poland, or The Body Shop, U.K.) was applied to a piece of blotting paper fixed to the external rim of the pot immediately prior to use. A different pot was used for each combination of digging medium and odor; only one odor was ever applied to a given pot. The bait (one-half of a Honey Nut Cheerios, Nestle) was placed at the bottom of the “positive” pot and buried in the digging medium. A small amount of powdered Cheerios was added to the digging media to prevent the rat from trying to detect the buried reward by its smell. […]
Day 3, Testing. […] An incorrect choice was recorded as an error. […]

[3] = test system: HepG2 cells; test: LDH assay, hepatotoxicity in HepG2 cells; type: cell-based, human; settings: HepG2, 24 h, 0.1–25 μM
Description: Human hepatocellular carcinoma cells (HepG2) were cultured using standard procedures (protocol from ATCC). Cells were cultured in Eagle’s minimum essential medium (EMEM) in flasks with an area of 25 cm^2 (Falcon), supplemented with 10% of fetal bovine serum (FBS, Life Technologies) with the addition of 100 IU/mL penicillin (Sigma-Aldrich) and 100 μg/mL streptomycin (Sigma-Aldrich) and incubated at 37 °C in a humidified atmosphere with 5% CO2.
Cells were seeded at density 2 × 10^4 cells/per well in […] plates. After 24 h, compound 27 and reference standard DOX (highly cytotoxic agent) were added to final concentrations of 0.1–150 μM. After 24 h incubation, plates were centrifuged (200g, 2 min) and 50 μL of the supernatant was transferred into the corresponding 96-well plate. Subsequently, 50 μL of LDH-reaction mixture prepared according to the manufacturer’s instructions (Invitrogen) was added to each well. Incubation was conducted in darkness for 30 min at room temperature. Next, stop solution was added and absorbance was measured at 490 nm (A490) using a plate reader (Spectra Max iD3, Molecular Devices). Cytotoxicity was determined as follows: cytotoxicity (%) = [(compound LDH activity – spontaneous LDH activity)/(maximum LDH activity – spontaneous LDH activity)] × 100. The maximum LDH activity was prepared by treating cells with lysis buffer. […]

T1 sequence (P08684 whole entry): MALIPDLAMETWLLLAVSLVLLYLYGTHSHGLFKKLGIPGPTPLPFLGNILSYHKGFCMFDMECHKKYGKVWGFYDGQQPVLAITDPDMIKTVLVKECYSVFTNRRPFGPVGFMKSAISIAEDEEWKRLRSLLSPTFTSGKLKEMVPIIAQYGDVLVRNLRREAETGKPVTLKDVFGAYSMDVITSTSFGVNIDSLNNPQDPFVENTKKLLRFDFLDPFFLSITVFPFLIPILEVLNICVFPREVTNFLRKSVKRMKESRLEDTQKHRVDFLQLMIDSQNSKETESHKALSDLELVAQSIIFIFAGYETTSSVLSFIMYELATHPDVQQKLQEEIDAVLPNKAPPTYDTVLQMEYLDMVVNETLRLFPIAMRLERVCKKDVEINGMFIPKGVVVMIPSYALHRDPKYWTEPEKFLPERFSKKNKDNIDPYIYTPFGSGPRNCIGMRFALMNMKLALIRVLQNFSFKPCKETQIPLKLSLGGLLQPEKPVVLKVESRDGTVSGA

O=C(N[C@@H]1CCNC1)c1ccn(S(=O)(=O)c2cccc(Cl)c2)c1-c1ccc(F)cc1 [Compound 27, (R)-2-(4-Fluorophenyl)-1-[(3-chlorophenyl)sulfonyl]-N-(pyrrolidin-3-yl)-1H-pyrrole-3-carboxamide] was tested, and the IC50 [1] was 0.069 µM, the “cognitive flexibility (trials to criterion)” value ([2]; 6 mg/kg p.o.) was “effective only during the Rev2 phase” and the “cognitive flexibility (trials to criterion)” value ([2]; 9 mg/kg p.o., ED, Rev1, Rev2, Rev3 stages) was “enhanced cognitive flexibility”. For the same compound, the “mean time to complete the trial” value ([2]; 6 and 9 mg/kg p.o., all discrimination stages) was “did not affect the mean time to complete the trial” and the “cell membrane integrity (LDH test)” value [3] was “did not affect the cell membrane integrity”.
